Reference: PubChem BioAssay (NCI)
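Five compound concentrations were applied to cells in 96-well plates for 48 hours; endpoints were derived by simple linear interpolation of the resulting dose-response curve. At the TGI there is no net growth.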

Experiments:
Experiment in all cases: NCI tumour cell line growth inhibition, 48 h
786-0 renal = test system: 786-0 renal
A549 NSCLC = test system: A549 NSCLC
ACHN renal = test system: ACHN renal
CAKI-1 renal = test system: CAKI-1 renal
CCRF-CEM leukemia = test system: CCRF-CEM leukemia
COLO 205 colon = test system: COLO 205 colon
DLD-1 colon = test system: DLD-1 colon
DMS 114 small cell lung = test system: DMS 114 small cell lung
DMS 273 small cell lung = test system: DMS 273 small cell lung
EKVX NSCLC = test system: EKVX NSCLC
HCC-2998 colon = test system: HCC-2998 colon
HCT-116 colon = test system: HCT-116 colon
HCT-15 colon = test system: HCT-15 colon
HL-60(TB) leukemia = test system: HL-60(TB) leukemia
HOP-18 NSCLC = test system: HOP-18 NSCLC
HOP-92 NSCLC = test system: HOP-92 NSCLC
HT29 colon = test system: HT29 colon
IGROV1 ovarian = test system: IGROV1 ovarian
K-562 leukemia = test system: K-562 leukemia
KM12 colon = test system: KM12 colon
KM20L2 colon = test system: KM20L2 colon
LOX IMVI melanoma = test system: LOX IMVI melanoma
LXFL 529 NSCLC = test system: LXFL 529 NSCLC
M19-MEL melanoma = test system: M19-MEL melanoma
MALME-3M melanoma = test system: MALME-3M melanoma
MOLT-4 leukemia = test system: MOLT-4 leukemia
NCI-H226 lung = test system: NCI-H226 lung
NCI-H23 lung = test system: NCI-H23 lung
NCI-H460 lung = test system: NCI-H460 lung
OVCAR-4 ovarian = test system: OVCAR-4 ovarian
OVCAR-5 ovarian = test system: OVCAR-5 ovarian
OVCAR-8 ovarian = test system: OVCAR-8 ovarian
RXF 393 renal = test system: RXF 393 renal
RXF-631 renal = test system: RXF-631 renal
SF-268 CNS = test system: SF-268 CNS
SF-295 CNS = test system: SF-295 CNS
SF-539 CNS = test system: SF-539 CNS
SK-MEL-2 melanoma = test system: SK-MEL-2 melanoma
SK-MEL-28 melanoma = test system: SK-MEL-28 melanoma
SK-OV-3 ovarian = test system: SK-OV-3 ovarian
SN12C renal = test system: SN12C renal
SNB-19 CNS = test system: SNB-19 CNS
SNB-78 CNS = test system: SNB-78 CNS
SR leukemia = test system: SR leukemia
SW-620 colon = test system: SW-620 colon
TK-10 renal = test system: TK-10 renal
U251 CNS = test system: U251 CNS
UACC-257 melanoma = test system: UACC-257 melanoma
UACC-62 melanoma = test system: UACC-62 melanoma
UO-31 renal = test system: UO-31 renal
A498 renal = test system: A498 renal
HOP-62 NSCLC = test system: HOP-62 NSCLC
M14 melanoma = test system: M14 melanoma
NCI-H522 lung = test system: NCI-H522 lung
OVCAR-3 ovarian = test system: OVCAR-3 ovarian
RPMI-8226 leukemia = test system: RPMI-8226 leukemia
SK-MEL-5 melanoma = test system: SK-MEL-5 melanoma
SNB-75 CNS = test system: SNB-75 CNS
XF 498 CNS = test system: XF 498 CNS

`COc1ccc(NC(=O)CC/C(CC(=O)c2ccccc2Cl)=N\Nc2nnc(C)n2N)cc1` showed a TGI (786-0 renal) of over 100 µM, a TGI (A549 NSCLC) of over 100 µM and a TGI (ACHN renal) of over 100 µM. For the same compound, the TGI (CAKI-1 renal) was over 100 µM, the TGI (CCRF-CEM leukemia) was over 100 µM and the TGI (COLO 205 colon) was over 100 µM. The TGI (DLD-1 colon) was over 100 µM, the TGI (DMS 114 small cell lung) was over 100 µM and the TGI (DMS 273 small cell lung) was over 100 µM. For the same compound, the TGI (EKVX NSCLC) was over 100 µM, the TGI (HCC-2998 colon) was over 100 µM and the TGI (HCT-116 colon) was over 100 µM. For the same compound, the TGI (HCT-15 colon) was over 100 µM, the TGI (HL-60(TB) leukemia) was over 100 µM and the TGI (HOP-18 NSCLC) was over 100 µM. For the same compound, the TGI (HOP-92 NSCLC) was over 100 µM, the TGI (HT29 colon) was over 100 µM and the TGI (IGROV1 ovarian) was over 100 µM. The TGI (K-562 leukemia) was over 100 µM, the TGI (KM12 colon) was over 100 µM and the TGI (KM20L2 colon) was over 100 µM. For the same compound, the TGI (LOX IMVI melanoma) was over 100 µM, the TGI (LXFL 529 NSCLC) was over 100 µM and the TGI (M19-MEL melanoma) was over 100 µM. It also gave a TGI (MALME-3M melanoma) of over 100 µM, a TGI (MOLT-4 leukemia) of over 100 µM and a TGI (NCI-H226 lung) of over 100 µM. It also gave a TGI (NCI-H23 lung) of over 100 µM, a TGI (NCI-H460 lung) of over 100 µM and a TGI (OVCAR-4 ovarian) of over 100 µM. For the same compound, the TGI (OVCAR-5 ovarian) was over 100 µM, the TGI (OVCAR-8 ovarian) was over 100 µM and the TGI (RXF 393 renal) was over 100 µM. The TGI (RXF-631 renal) was over 100 µM, the TGI (SF-268 CNS) was over 100 µM and the TGI (SF-295 CNS) was over 100 µM. The TGI (SF-539 CNS) was over 100 µM, the TGI (SK-MEL-2 melanoma) was over 100 µM and the TGI (SK-MEL-28 melanoma) was over 100 µM. The TGI (SK-OV-3 ovarian) was over 100 µM, the TGI (SN12C renal) was over 100 µM and the TGI (SNB-19 CNS) was over 100 µM. For the same compound, the TGI (SNB-78 CNS) was over 100 µM, the TGI (SR leukemia) was over 100 µM and the TGI (SW-620 colon) was over 100 µM. It also gave a TGI (TK-10 renal) of over 100 µM, a TGI (U251 CNS) of over 100 µM and a TGI (UACC-257 melanoma) of over 100 µM. The TGI (UACC-62 melanoma) was over 100 µM and the TGI (UO-31 renal) was over 100 µM.
For `COc1ccc2c(c1)CCc1cnn(C3OC(COC(C)=O)C(OC(C)=O)C(OC(C)=O)C3OC(C)=O)c1-2` (configuration not stated), the TGI (786-0 renal) was 75.6 µM, the TGI (A498 renal) was over 100 µM and the TGI (A549 NSCLC) was over 100 µM. The TGI (ACHN renal) was over 100 µM, the TGI (CAKI-1 renal) was over 100 µM and the TGI (CCRF-CEM leukemia) was 60.5 µM. For the same compound, the TGI (COLO 205 colon) was over 100 µM, the TGI (DLD-1 colon) was over 100 µM and the TGI (DMS 114 small cell lung) was over 100 µM. For the same compound, the TGI (DMS 273 small cell lung) was over 100 µM, the TGI (EKVX NSCLC) was over 100 µM and the TGI (HCC-2998 colon) was over 100 µM. It also gave a TGI (HCT-116 colon) of over 100 µM, a TGI (HCT-15 colon) of over 100 µM and a TGI (HL-60(TB) leukemia) of over 100 µM. For the same compound, the TGI (HOP-62 NSCLC) was over 100 µM, the TGI (HOP-92 NSCLC) was 51.5 µM and the TGI (HT29 colon) was over 100 µM. The TGI (K-562 leukemia) was over 100 µM, the TGI (KM12 colon) was over 100 µM and the TGI (KM20L2 colon) was 51.8 µM. It also gave a TGI (LOX IMVI melanoma) of over 100 µM, a TGI (LXFL 529 NSCLC) of 41.4 µM and a TGI (M14 melanoma) of over 100 µM. For the same compound, the TGI (M19-MEL melanoma) was over 100 µM, the TGI (MOLT-4 leukemia) was 74.3 µM and the TGI (NCI-H226 lung) was over 100 µM. For the same compound, the TGI (NCI-H23 lung) was over 100 µM, the TGI (NCI-H460 lung) was over 100 µM and the TGI (NCI-H522 lung) was 31.7 µM. The TGI (OVCAR-3 ovarian) was 56.7 µM, the TGI (OVCAR-5 ovarian) was over 100 µM and the TGI (OVCAR-8 ovarian) was over 100 µM. The TGI (RPMI-8226 leukemia) was 53.8 µM, the TGI (RXF-631 renal) was over 100 µM and the TGI (SF-268 CNS) was over 100 µM. It also gave a TGI (SF-295 CNS) of over 100 µM, a TGI (SF-539 CNS) of over 100 µM and a TGI (SK-MEL-2 melanoma) of over 100 µM. For the same compound, the TGI (SK-MEL-28 melanoma) was over 100 µM, the TGI (SK-MEL-5 melanoma) was over 100 µM and the TGI (SN12C renal) was over 100 µM. The TGI (SNB-19 CNS) was over 100 µM, the TGI (SNB-75 CNS) was over 100 µM and the TGI (SNB-78 CNS) was over 100 µM. For the same compound, the TGI (SR leukemia) was 70.5 µM, the TGI (SW-620 colon) was 36.2 µM and the TGI (TK-10 renal) was over 100 µM. It also gave a TGI (U251 CNS) of 65.6 µM, a TGI (UACC-257 melanoma) of over 100 µM and a TGI (UACC-62 melanoma) of over 100 µM. For the same compound, the TGI (XF 498 CNS) was 52.1 µM.
